Measurements as given in US20250376464A1 (Trawsfynydd Therapeutics, Inc., priority 2022, published 2025).

What follows are compounds tested against SARS-CoV2-Mpro (Severe acute respiratory syndrome coronavirus 2 (2019-nCoV) (SARS-CoV-2), UniProt P0DTD1) (assay: Primary assay: SARS-CoV2-Mpro enzymatic activity inhibition). Settings: enzyme preincubated with compound for 20 min; slope of linear portion of signal.
Type: biochemical
Method: Example A. Primary Assay Used to Determine Potency of SARS-CoV2-Mpro Enzymatic Activity Inhibition
• (1) Deliver 2× Enzyme • (2) Deliver buffer into No Enzyme wells • (3) Deliver compounds in 100% DMSO by using Acoustic technology (Echo550; nanoliter range) • (4) Incubate for 20 min • (5) Deliver 2× Substrate to initiate the reaction • (6) Spin & shake, start measuring in EnVision at rt; 5 min interval for 25 (2 hours) • (7) Analyze data by taking slope (signal/time) of linear portion of measurement • (8) Slope is calculated by using Excel, and curve fits are performed using Prism software.
The % inhibition was then used to calculate the IC50 values. The IC50 values are shown in Table A, wherein “A” corresponds to IC50<10.0 nm, “B” corresponds to 10.0 nm≤IC50<50.0 nm, “C” corresponds to 50.0 nm≤IC50<100.0 nm, “D” corresponds to 100.0 nm≤IC50<500.0 nm, and “E” corresponds to 500.0 nm≤IC50<1000.0 nm, and “F” corresponds to 1000.0 nm≤IC50.

Question: `CC(C)(C)[C@H](NC(=O)C(F)(F)F)C(=O)N1C[C@H]2C([C@H]1C(=O)N[C@H](C#N)Cn1c(=O)[nH]c3ccccc31)C2(C)C` (stereo in doubt) [Compound 301, (1R,2S,5S)—N—((S)-1-cyano-2-(2-oxo-2,3-dihydro-1H-benzo[d]imidazol-1-yl)ethyl)-3-((S)-3,3-dimethyl-2-(2,2,2-trifluoroacetamido)butanoyl)-6,6-dimethyl-3-azabicyclo[3.1.0]hexane-2-carboxamide] was tested. Which IC50 did it give?
Answer: ≥ 1000 nM

Question: `CC(C)(C)[C@H](NC(=O)C(F)(F)F)C(=O)N1C[C@H]2[C@H]([C@H]1C(=O)N[C@H](C#N)CC1C(=O)Nc3ccc(Cl)cc31)C2(C)C` (stereo partly drawn) [Compound 218, (1S,2S,5S)-N-[(1S)-2-(5-chloro-2-oxo-indolin-3-yl)-1-cyano-ethyl]-3-[(2S)-3,3-dimethyl-2-[(2,2,2-trifluoroacetyl)amino]butanoyl]-6,6-dimethyl-3-azabicyclo[3.1.0]hexane-2-carboxamide] was tested. Which IC50 did it give?
Answer: 10 to 50 nM

Question: With `CC(C)(C)[C@H](NC(=O)C(F)(F)F)C(=O)N1C[C@H]2[C@H]([C@H]1C(=O)N[C@H](C#N)CC1C(=O)Nc3cc(Cl)ccc31)C2(C)C` (stereo partly drawn) [Compound 219, (1S,2S,5S)-N-[(1S)-2-(6-chloro-2-oxo-indolin-3-yl)-1-cyano-ethyl]-3-[(2S)-3,3-dimethyl-2-[(2,2,2-trifluoroacetyl)amino]butanoyl]-6,6-dimethyl-3-azabicyclo[3.1.0]hexane-2-carboxamide] as the compound, how does the IC50 read?
Answer: 10 to 50 nM

Question: How did the IC50 turn out when `Cc1ccc2c(c1)C(C[C@@H](C#N)NC(=O)[C@@H]1[C@H]3[C@H](CN1C(=O)[C@@H](NC(=O)C(F)(F)F)C(C)(C)C)C3(C)C)C(=O)N2` (stereo partly drawn) [Compound 220, (1S,2S,5S)-N-[(1S)-1-cyano-2-(5-methyl-2-oxo-indolin-3-yl)ethyl]-3-[(2S)-3,3-dimethyl-2-[(2,2,2-trifluoroacetyl)amino]butanoyl]-6,6-dimethyl-3-azabicyclo[3.1.0]hexane-2-carboxamide] was run?
Answer: 10 to 50 nM

Question: For `COc1ccc2c(c1)C(C[C@@H](C#N)NC(=O)[C@@H]1[C@H]3[C@H](CN1C(=O)[C@@H](NC(=O)C(F)(F)F)C(C)(C)C)C3(C)C)C(=O)N2` (stereo partly drawn) [Compound 221, (1S,2S,5S)-N-[(1S)-1-cyano-2-(5-methoxy-2-oxo-indolin-3-yl)ethyl]-3-[(2S)-3,3-dimethyl-2-[(2,2,2-trifluoroacetyl)amino]butanoyl]-6,6-dimethyl-3-azabicyclo[3.1.0]hexane-2-carboxamide], which IC50 is on record?
Answer: < 10 nM

Question: How did the IC50 turn out when `COc1ccc2c(c1)NC(=O)C2C[C@@H](C#N)NC(=O)[C@@H]1[C@H]2[C@H](CN1C(=O)[C@@H](NC(=O)C(F)(F)F)C(C)(C)C)C2(C)C` (stereo partly drawn) [Compound 222, (1S,2S,5S)-N-[(1S)-1-cyano-2-(6-methoxy-2-oxo-indolin-3-yl)ethyl]-3-[(2S)-3,3-dimethyl-2-[(2,2,2-trifluoroacetyl)amino]butanoyl]-6,6-dimethyl-3-azabicyclo[3.1.0]hexane-2-carboxamide] was run?
Answer: 10 to 50 nM

Question: With `CC(C)(C)[C@H](NC(=O)C(F)(F)F)C(=O)N1C[C@H]2[C@H]([C@H]1C(=O)NC(C#N)CC1C(=O)Nc3ccccc31)C2(C)C` (stereo partly drawn) [Compound 226, (1S,2S,5S)—N-[1-cyano-2-(2-oxoindolin-3-yl)ethyl]-3-[(2S)-3,3-dimethyl-2-[(2,2,2-trifluoroacetyl)amino]butanoyl]-6,6-dimethyl-3-azabicyclo[3.1.0]hexane-2-carboxamide] as the compound, how does the IC50 read?
Answer: < 10 nM

Question: `CC(C)CCN(C(=O)[C@@H]1[C@@H]2[C@H](CN1C(=O)[C@@H](NC(=O)C(F)(F)F)C(C)(C)C)C2(C)C)[C@H](C#N)C[C@@H]1C(=O)Nc2ccccc21` [Compound 247, (1R,2S,5S)-N-[(1S)-1-cyano-2-(2-oxoindolin-3-yl)ethyl]-3-[(2S)-3,3-dimethyl-2-[(2,2,2-trifluoroacetyl)amino]butanoyl]-N-isopentyl-6,6-dimethyl-3-azabicyclo[3.1.0]hexane-2-carboxamide] was tested. Which IC50 did it give?
Answer: ≥ 1000 nM
